Test results as given in patent US20200131156A1, “ARYLSULFONYLPYROLECARBOXAMIDE DERIVATIVES AS Kv3 POTASSIUM CHANNEL ACTIVATORS” (H. Lundbeck A/S, priority 2018, published 2020).

Target: T1, hKv3.1b (Homo sapiens, UniProt P48547)
T1 construct: expressed in transfected cells
T1 sequence (P48547 1-585 isoform P48547-2): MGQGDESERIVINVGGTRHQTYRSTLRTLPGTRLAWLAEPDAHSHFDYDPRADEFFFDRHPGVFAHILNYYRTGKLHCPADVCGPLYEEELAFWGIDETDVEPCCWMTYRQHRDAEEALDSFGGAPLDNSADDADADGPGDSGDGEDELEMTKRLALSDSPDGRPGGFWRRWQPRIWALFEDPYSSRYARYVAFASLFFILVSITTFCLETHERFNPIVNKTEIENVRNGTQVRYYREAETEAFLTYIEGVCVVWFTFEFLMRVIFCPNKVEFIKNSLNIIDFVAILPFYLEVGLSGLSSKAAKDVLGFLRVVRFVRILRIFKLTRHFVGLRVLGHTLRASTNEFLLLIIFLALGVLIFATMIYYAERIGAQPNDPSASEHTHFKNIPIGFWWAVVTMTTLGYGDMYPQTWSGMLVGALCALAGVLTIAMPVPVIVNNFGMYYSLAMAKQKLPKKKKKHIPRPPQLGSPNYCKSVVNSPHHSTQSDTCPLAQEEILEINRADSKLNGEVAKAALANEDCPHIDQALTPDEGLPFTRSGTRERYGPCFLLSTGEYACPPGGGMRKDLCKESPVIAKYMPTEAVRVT
Test: Automated patch clamp (QPatch-16x) on HEK-293 cells stably expressing hKv3.1b
Type: cell-based
Conditions: for ECdelta5 mV: concentration needed to shift the activation threshold 5 mV; for Threshold Shift: maximum absolute hyperpolarizing shift of activation threshold at tested concentrations 0.37-30 μM
Procedure: HEK-293 cells stably expressing hKv3.1b were used for the experiments. Cells were cultured in DMEM medium supplemented with 10% Fetal Bovine Serum, 100 ug/mL Geneticidin and 100 u/mL Penicillin/Streptomycin (all from Gibco). Cells were grown to 80-90% confluency at 37° C. and 5% CO2. On the day of the experiment the cells were detached from the tissue culture flasks by Detachin, resuspended in serum free medium containing 25 mM HEPES and transferred to the cell hotel of the QPatch. The cells were used for experiments 0-5 hours after detachment.
Patch-clamp recordings were performed using the automated recording system QPatch-16x (Sophion Bioscience, Denmark). Cells were centrifuged, SFM removed and the cells were resuspended in extracellular buffer containing (in mM): 145 NaCl, 4 KCl, 1 MgCl2, 2 CaCl2, 10 HEPES and 10 glucose (added fresh on the day of experiment); pH 7.4 adjusted with NaOH, 305 mOsm adjusted with sucrose.
Single cell whole-cell recordings were carried out using an intracellular solution containing (in mM): 120 KCl, 32.25/10 KOH/EGTA, 5.374 CaCl2, 1.75 MgCl2, 10 HEPES, 4 Na2ATP (added fresh on the day), pH 7.2 adjusted with KOH, […] adjusted with sucrose. Cell membrane potentials were held at −80 mV and currents were evoked by voltage steps (200 ms duration) from −70 mV to +10 mV (in 10 mV increments). Vehicle (0.33% DMSO) or increasing concentration of compound (I) were applied and the voltage protocol was run 3 times (resulting in 3 min cpd incubation time). Five increasing concentrations of compound (I) were applied to each cell.
Leak subtraction protocol was applied at −33% of the sweep amplitude, and serial resistance values were constantly monitored.
Any cell where serial resistance exceeded 25 MOhm, membrane resistance less than 200 MOhm or current size at −10 mV less than 200 pA was eliminated from the subsequent analysis.
Data analysis was performed using Sophion's QPatch assay software in combination with Microsoft Excel™ (Redmond, Wash., USA). Current voltage relationships were plotted from the peak current at the individual voltage steps normalized to the vehicle addition at 10 mV. The voltage threshold for channel activation was defined as 5% activation of the peak current at 10 mV in presence of vehicle. The activity of the compounds was described as the ability to shift this current voltage relationship to more hyperpolarized potentials and is given as the maximum absolute shift possible at the tested concentrations (0.37, 1.11, 3.33, 10, 30 μM). Concentration response curves were plotted from the threshold shift at the individual concentrations and were fitted excel fit model 205 sigmoidal dose-response model (fit=A+((B−A)/1+((C/x)^D)))), where A is the minimum value, B the maximum value, C the EC50 value and D the slope of the curve. The concentration needed to shift the threshold 5 mV was readout from this curve (ECdelta5 mV).

| SMILES | ECdelta5 mV [nM] | Threshold Shift [mV] |
| --- | --- | --- |
| Cc1ccc(S(=O)(=O)n2ccc(C(=O)NCc3ccn(C)n3)c2)cc1 [Compound 36, N-[(1-methylpyrazol-3-yl)methyl]-1-(p-tolylsulfonyl) pyrrole-3-carboxamide] | 810 | 27 |
| Cc1ccc(S(=O)(=O)n2ccc(C(=O)NCc3cnc(C)cn3)c2F)cc1 [Compound 88, 2-fluoro-1-(4-methylbenzene-1-sulfonyl)-N-[(5-methylpyrazin-2-yl)methyl]-1H-pyrrole-3-carboxamide] | 2000 | 23 |
| Cc1ccc(S(=O)(=O)n2ccc(C(=O)NCc3ncn(C)n3)c2)cc1 [Compound 42, N-[(1-methyl-1,2,4-triazol-3-yl)methyl]-1-(p-tolylsulfonyl)pyrrole-3-carboxamide] | 1700 | 25 |
| Cc1ccc(S(=O)(=O)n2ccc(C(=O)NCc3cc(F)ccn3)c2)cc1 [Compound 12, N-[(4-fluoro-2-pyridyl)methyl]-1-(p-tolylsulfonyl) pyrrole-3-carboxamide] | 1700 | 16 |
| COc1ncc(CNC(=O)c2ccn(S(=O)(=O)c3ccc(OC(F)F)cc3)c2)cn1 [Compound 112, 1-[4-(difluoromethoxy)benzene-1-sulfonyl]-N-[(2-methoxypyrimidin-5-yl)methyl]-1H-pyrrole-3-carboxamide] | 4100 | 17 |
| Cc1cnc(CNC(=O)c2ccn(S(=O)(=O)c3ccc(F)c(C)c3)c2)cn1 [Compound 101, 1-(4-fluoro-3-methyl-phenyl)sulfonyl-N-[(5-methylpyrazin-2-yl)methyl]pyrrole-3-carboxamide] | 2000 | 23 |
| Cc1ccc(S(=O)(=O)n2ccc(C(=O)NCc3ccc(C)nc3)c2)cc1 [Compound 26, N-[(6-methyl-3-pyridyl)methyl]-1-(p-tolylsulfonyl)pyrrole-3-carboxamide] | 930 | 22 |
| Cc1cnc(CNC(=O)c2ccn(S(=O)(=O)c3ccc(F)cc3)c2)cn1 [Compound 6, 1-(4-fluorophenyl)sulfonyl-N-[(5-methylpyrazin-2-yl)methyl]pyrrole-3-carboxamide] | 2300 | 24 |
| Cc1cnc(CNC(=O)c2ccn(S(=O)(=O)c3c(C)cc(F)cc3C)c2)cn1 [Compound 99, 1-(4-fluoro-2,6-dimethyl-phenyl)sulfonyl-N-[(5-methylpyrazin-2-yl)methyl]pyrrole-3-carboxamide] | 1900 | 21 |
| Cc1ccccc1S(=O)(=O)n1ccc(C(=O)NCc2ccn(C)n2)c1 [Compound 74, 1-(2-methylbenzene-1-sulfonyl)-N-[(1-methyl-1H-pyrazol-3-yl)methyl]-1H-pyrrole-3-carboxamide] | 2100 | 21 |
| Cc1ccc(S(=O)(=O)n2ccc(C(=O)NCc3ncc(C)o3)c2)cc1 [Compound 33, N-[(5-methyloxazol-2-yl)methyl]-1-(p-tolylsulfonyl)pyrrole-3-carboxamide] | 2200 | 15 |
| Cc1ccc(S(=O)(=O)n2ccc(C(=O)NCc3coc(C)n3)c2)cc1 [Compound 47, 1-(4-methylbenzene-1-sulfonyl)-N-[(2-methyl-1,3-oxazol-4-yl)methyl]-1H-pyrrole-3-carboxamide] | 2300 | 12 |
| COc1ccc(S(=O)(=O)n2ccc(C(=O)NCc3cc(C)no3)c2)cc1 [Compound 71, 1-(4-methoxybenzene-1-sulfonyl)-N-[(3-methyl-1,2-oxazol-5-yl)methyl]-1H-pyrrole-3-carboxamide] | 1800 | 19 |
| CNc1cnc(CNC(=O)c2ccn(S(=O)(=O)c3ccc(OC(F)F)cc3)c2)cn1 [Compound 107, 1-[4-(difluoromethoxy)benzene-1-sulfonyl]-N-{[5-(methylamino)pyrazin-2-yl]methyl}-1H-pyrrole-3-carboxamide] | 1800 | 36 |
| Cc1ccc(S(=O)(=O)n2ccc(C(=O)NCc3cnc4nccn4c3)c2)cc1 [Compound 24, N-(imidazo[1,2-a]pyrimidin-6-ylmethyl)-1-(p-tolylsulfonyl)pyrrole-3-carboxamide] | 3200 | 24 |
| COc1ccc(CNC(=O)c2ccn(S(=O)(=O)c3ccc(C)cc3)c2)nc1 [Compound 18, N-[(5-methoxy-2-pyridyl)methyl]-1-(p-tolylsulfonyl) pyrrole-3-carboxamide] | 3500 | 10 |
| Cc1cnc(CNC(=O)c2ccn(S(=O)(=O)c3ccccc3C)c2)o1 [Compound 80, 1-(2-methylbenzene-1-sulfonyl)-N-[(5-methyl-1,3-oxazol-2-yl)methyl]-1H-pyrrole-3-carboxamide] | 2800 | 12 |
| Cc1ccc(S(=O)(=O)n2ccc(C(=O)NCc3cc(C)on3)c2)cc1 [Compound 32, N-[(5-methylisoxazol-3-yl)methyl]-1-(p-tolylsulfonyl) pyrrole-3-carboxamide] | 1300 | 16 |
| Cc1ccc(S(=O)(=O)n2ccc(C(=O)NCc3ccc(F)cn3)c2)cc1 [Compound 13, N-[(5-fluoro-2-pyridyl)methyl]-1-(p-tolylsulfonyl) pyrrole-3-carboxamide] | 1700 | 13 |
| O=C(NCc1cnccn1)c1ccn(S(=O)(=O)c2ccc(Cl)cc2)c1 [Compound 81, 1-(4-chlorobenzene-1-sulfonyl)-N-[(pyrazin-2-yl)methyl]-1H-pyrrole-3-carboxamide] | 1000 | 28 |
| Cc1cnc(CNC(=O)c2ccn(S(=O)(=O)c3ccccc3)c2)c(C)n1 [Compound 111, 1-(benzenesulfonyl)-N-[(3,5-dimethylpyrazin-2-yl)methyl]-1H-pyrrole-3-carboxamide] | 2900 | 21 |
| Cc1ccc(S(=O)(=O)n2ccc(C(=O)NCc3cccnc3)c2)cc1 [Compound 14, 1-(p-tolylsulfonyl)-N-(3-pyridylmethyl) pyrrole-3-carboxamide] | 1500 | 23 |
| Cc1ccc(S(=O)(=O)n2ccc(C(=O)NCc3nnc(C)s3)c2)cc1 [Compound 115, 1-(4-methylbenzene-1-sulfonyl)-N-[(5-methyl-1,3,4-thiadiazol-2-yl)methyl]-1H-pyrrole-3-carboxamide] | 2800 | 17 |
